Laboratory results taken from patent US10131652B2, “Pyrimidinyloxy benzene derivatives as herbicides” (E. I. DU PONT DE NEMOURS AND COMPANY, priority 2014, dated 2018).

Experiments:
Type in all cases: in vivo
[1] = system: small-flower umbrella sedge (Cyperus difformis); assay: Test C flooded paddy test plant response; details: Flood, 250 g ai/ha; scale of 0 to 100 where 0 is no effect and 100 is complete control; 13 to 15 days
Procedure, shortened: (§1)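 Plants grown to the 2-leaf stage; pots flooded to 3 cm above soil, test compounds applied directly to paddy water, depth maintained throughout. Greenhouse for 13 to 15 days, then visual rating versus controls on a 0–100 scale (0 no effect, 100 complete control).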

[2] = system: ducksalad (Heteranthera limosa); assay: Test C flooded paddy test plant response; details: Flood, 250 g ai/ha; scale of 0 to 100 where 0 is no effect and 100 is complete control; 13 to 15 days
Procedure, shortened: as §1

[3] = system: rice (Oryza sativa); assay: Test C flooded paddy test plant response; details: Flood, 250 g ai/ha; scale of 0 to 100 where 0 is no effect and 100 is complete control; 13 to 15 days
Procedure, shortened: as §1

[4] = system: barnyardgrass (Echinochloa crus-galli); assay: Test C flooded paddy test plant response; details: Flood, 250 g ai/ha; scale of 0 to 100 where 0 is no effect and 100 is complete control; 13 to 15 days
Procedure, shortened: as §1

[5] = system: Italian ryegrass (Lolium multiflorum); assay: Test B pre-/postemergence plant response
Procedure, shortened: (§2)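 Visual injury scores on a 0–100 scale (100 = complete control) relative to untreated plants, taken about 10 days post-treatment in greenhouse. Treatments were a directed preemergence soil spray and a postemergence spray at one- to two-leaf stage, using surfactant-containing solvent formulation.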

[6] = system: pigweed (Amaranthus retroflexus); assay: Test B pre-/postemergence plant response
Procedure, shortened: as §2

[7] = system: kochia (Kochia scoparia); assay: Test B pre-/postemergence plant response
Procedure, shortened: as §2

[8] = system: barnyardgrass (Echinochloa crus-galli); assay: Test B pre-/postemergence plant response
Procedure, shortened: as §2

[9] = system: corn (Zea mays); assay: Test B pre-/postemergence plant response
Procedure, shortened: as §2

[10] = system: giant foxtail (Setaria faberii); assay: Test B pre-/postemergence plant response
Procedure, shortened: as §2

[11] = system: wheat (Triticum aestivum); assay: Test B pre-/postemergence plant response
Procedure, shortened: as §2

[12] = system: ragweed (common ragweed, Ambrosia elatior); assay: Test B pre-/postemergence plant response
Procedure, shortened: as §2

[13] = system: kochia (Kochia scoparia); assay: Test D postemergence plant response; details: for Kochia plant response rating: scale 0 to 100 (0 no effect, 100 complete control); for Plant response rating, Kochia: scale 0 to 100, 0 no effect, 100 complete control
Procedure, shortened: (§3)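 Visual scoring from 0 (no effect) to 100 (complete control), relative to controls, 13–15 days after treatment in the greenhouse. Compounds were applied postemergence at the 1- to 4-leaf stage (2–18 cm) to potted plants in peat-based medium.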

[14] = system: wild oat (Avena fatua); assay: Test D postemergence plant response
Procedure, shortened: as §3

[15] = system: chickweed (common chickweed, Stellaria media); assay: Test D postemergence plant response; details: for Chickweed plant response rating: scale 0 to 100 (0 no effect, 100 complete control); for Plant response rating, Chickweed: scale 0 to 100, 0 no effect, 100 complete control
Procedure, shortened: as §3

[16] = system: blackgrass (Alopecurus myosuroides); assay: Test B postemergence plant response
Procedure, shortened: (§4)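 Visual injury ratings, 0 = no effect to 100 = complete control, versus untreated controls approximately 10 days after postemergence spraying in greenhouse. Plants were at one- to two-leaf stage, 2 to 10 cm tall, in loam soil/sand blend; a dash denotes no result.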

[17] = system: galium (catchweed bedstraw, Galium aparine); assay: Test B postemergence plant response
Procedure, shortened: as §4

[18] = 125 g ai/ha, postemergence, 0 to 100 scale, 0 no effect, 100 complete control
[19] = Postemergence, 500 g ai/ha, 0 to 100 scale (0 no effect, 100 complete control)
[20] = Preemergence, 125 g ai/ha, 0 to 100 scale (0 no effect, 100 complete control)
[21] = Preemergence, 500 g ai/ha, 0 to 100 scale where 0 is no effect and 100 is complete control
[22] = 31 g ai/ha, scale 0 to 100 (0 no effect, 100 complete control)
[23] = 62 g ai/ha, scale 0 to 100, 0 no effect, 100 complete control
[24] = 125 g ai/ha, scale 0 to 100, 0 no effect, 100 complete control
[25] = 31 g ai/ha, Postemergence, 0 to 100 scale, 0 no effect, 100 complete control
[26] = 31 g ai/ha, Preemergence, 0 to 100 scale where 0 is no effect and 100 is complete control
[27] = Preemergence, 125 g ai/ha, 0 to 100 scale where 0 is no effect and 100 is complete control
[28] = 16 g ai/ha, scale 0 to 100 (0 no effect, 100 complete control)

In the case of `Clc1cnc(Oc2ccccc2-c2cc(C3CC3)on2)nc1` [Compound 183], the “Sedge, Umbrella plant response rating” value [1] is reported as 75, the “Ducksalad plant response rating” value [2] is reported as 85 and the “Rice plant response rating” value [3] is reported as 0. The “Barnyardgrass plant response rating” value [4] was 0, the “Plant response rating, Ryegrass, Italian” value [5, 18] was 40 and the “Plant response rating, Ryegrass, Italian” value [5, 19] was 70. For the same molecule, the “Ryegrass, Italian plant response rating” value [5, 20] was 20, the “Plant response rating, Ryegrass, Italian” value [5, 21] was 40 and the “Plant response rating, Pigweed” value [6, 18] was 100. The “Plant response rating, Pigweed” value [6, 19] was 100, the “Pigweed plant response rating” value [6, 20] was 90 and the “Plant response rating, Pigweed” value [6, 21] was 100. The “Plant response rating, Kochia” value [7, 18] was 100, the “Plant response rating, Kochia” value [7, 19] was 100 and the “Kochia plant response rating” value [7, 20] was 80. The “Plant response rating, Kochia” value [7, 21] was 100, the “Plant response rating, Barnyardgrass” value [8, 18] was 40 and the “Plant response rating, Barnyardgrass” value [8, 19] was 70. The “Barnyardgrass plant response rating” value [8, 20] was 30, the “Plant response rating, Barnyardgrass” value [8, 21] was 80 and the “Plant response rating, Corn” value [9, 18] was 10. For the same molecule, the “Plant response rating, Corn” value [9, 19] was 30, the “Plant response rating, Foxtail, Giant” value [10, 18] was 60 and the “Plant response rating, Foxtail, Giant” value [10, 19] was 80. The “Foxtail, Giant plant response rating” value [10, 20] was 80, the “Plant response rating, Foxtail, Giant” value [10, 21] was 90 and the “Plant response rating, Wheat” value [11, 18] was 10. The “Plant response rating, Wheat” value [11, 19] was 60, the “Plant response rating, Ragweed” value [12, 18] was 20 and the “Plant response rating, Ragweed” value [12, 19] was 30. The “Ragweed plant response rating” value [12, 20] was 0, the “Plant response rating, Ragweed” value [12, 21] was 60 and the “Plant response rating (scale 0 to 100), Kochia” value ([13]; 16 g ai/ha) was 90. The “Kochia plant response rating” value ([13]; 31 g ai/ha) was 95, the “Plant response rating, Kochia” value ([13]; 62 g ai/ha) was 100 and the “Plant response rating, Kochia” value ([13]; 125 g ai/ha) was 100. For the same molecule, the “Plant response rating (scale 0 to 100), Oat, Wild” value ([14]; 16 g ai/ha) was 0, the “Oat, Wild plant response rating” value [14, 22] was 5 and the “Oat, Wild plant response rating” value [14, 23] was 10. The “Plant response rating, Oat, Wild” value [14, 24] was 25, the “Plant response rating (scale 0 to 100), Chickweed” value ([15]; 16 g ai/ha) was 30 and the “Chickweed plant response rating” value ([15]; 31 g ai/ha) was 60. For the same molecule, the “Plant response rating, Chickweed” value ([15]; 62 g ai/ha) was 65, the “Plant response rating, Chickweed” value ([15]; 125 g ai/ha) was 70 and the “Plant response rating, Blackgrass” value [16, 18] was 80. The “Plant response rating, Blackgrass” value [16, 19] was 90, the “Plant response rating, Galium” value [17, 18] was 100 and the “Plant response rating, Galium” value [17, 19] was 100.

For `FC(Cl)c1cc(-c2ccccc2Oc2ncc(Cl)cn2)no1` (stereo not drawn) [Compound 116], the “Sedge, Umbrella plant response rating” value [1] was 90, the “Ducksalad plant response rating” value [2] was 95 and the “Rice plant response rating” value [3] was 30. For the same molecule, the “Barnyardgrass plant response rating” value [4] was 0, the “Plant response rating, Ryegrass, Italian” value [5, 25] was 0 and the “Plant response rating, Ryegrass, Italian” value [5, 26] was 0. For the same molecule, the “Plant response rating, Ryegrass, Italian” value [5, 18] was 30, the “Plant response rating, Pigweed” value [6, 25] was 100 and the “Plant response rating, Pigweed” value [6, 26] was 70. The “Plant response rating, Pigweed” value [6, 18] was 100, the “Plant response rating, Kochia” value [7, 25] was 90 and the “Plant response rating, Kochia” value [7, 26] was 60. For the same molecule, the “Plant response rating, Kochia” value [7, 18] was 90, the “Plant response rating, Kochia” value [7, 27] was 60 and the “Plant response rating, Barnyardgrass” value [8, 25] was 10. The “Plant response rating, Barnyardgrass” value [8, 26] was 0, the “Plant response rating, Barnyardgrass” value [8, 18] was 30 and the “Plant response rating, Barnyardgrass” value [8, 27] was 30. For the same molecule, the “Plant response rating, Corn” value [9, 25] was 20, the “Plant response rating, Corn” value [9, 18] was 40 and the “Plant response rating, Foxtail, Giant” value [10, 25] was 20. The “Plant response rating, Foxtail, Giant” value [10, 26] was 40, the “Plant response rating, Foxtail, Giant” value [10, 18] was 90 and the “Plant response rating, Foxtail, Giant” value [10, 27] was 90. The “Plant response rating, Wheat” value [11, 25] was 10, the “Plant response rating, Wheat” value [11, 18] was 20 and the “Plant response rating, Ragweed” value [12, 25] was 20. For the same molecule, the “Plant response rating, Ragweed” value [12, 26] was 0, the “Plant response rating, Ragweed” value [12, 18] was 40 and the “Kochia plant response rating” value ([13]; 16 g ai/ha) was 100. For the same molecule, the “Kochia plant response rating” value ([13]; 31 g ai/ha) was 100, the “Plant response rating, Kochia” value ([13]; 62 g ai/ha) was 100 and the “Plant response rating, Kochia” value ([13]; 125 g ai/ha) was 100. For the same molecule, the “Oat, Wild plant response rating” value [14, 28] was 5, the “Oat, Wild plant response rating” value [14, 22] was 5 and the “Plant response rating, Oat, Wild” value [14, 23] was 10. For the same molecule, the “Plant response rating, Oat, Wild” value [14, 24] was 15, the “Chickweed plant response rating” value ([15]; 16 g ai/ha) was 5 and the “Chickweed plant response rating” value ([15]; 31 g ai/ha) was 15. For the same molecule, the “Plant response rating, Chickweed” value ([15]; 62 g ai/ha) was 30, the “Plant response rating, Chickweed” value ([15]; 125 g ai/ha) was 90 and the “Plant response rating, Blackgrass” value [16, 25] was 20. The “Plant response rating, Blackgrass” value [16, 18] was 30, the “Plant response rating, Galium” value [17, 25] was 60 and the “Plant response rating, Galium” value [17, 18] was 70.

For `Fc1cccc(Oc2ncc(Br)cn2)c1-c1cc(C(F)F)on1` [Compound 118], the “Sedge, Umbrella plant response rating” value [1] was 100, the “Ducksalad plant response rating” value [2] was 100 and the “Rice plant response rating” value [3] was 45. For the same molecule, the “Barnyardgrass plant response rating” value [4] was 50, the “Plant response rating, Ryegrass, Italian” value [5, 25] was 20 and the “Plant response rating, Ryegrass, Italian” value [5, 26] was 20. For the same molecule, the “Plant response rating, Ryegrass, Italian” value [5, 18] was 80, the “Plant response rating, Pigweed” value [6, 25] was 100 and the “Plant response rating, Pigweed” value [6, 26] was 100. The “Plant response rating, Pigweed” value [6, 18] was 100, the “Plant response rating, Kochia” value [7, 25] was 100 and the “Plant response rating, Kochia” value [7, 26] was 80. For the same molecule, the “Plant response rating, Kochia” value [7, 18] was 100, the “Plant response rating, Kochia” value [7, 27] was 100 and the “Plant response rating, Barnyardgrass” value [8, 25] was 70. For the same molecule, the “Plant response rating, Barnyardgrass” value [8, 26] was 70, the “Plant response rating, Barnyardgrass” value [8, 18] was 100 and the “Plant response rating, Barnyardgrass” value [8, 27] was 100. The “Plant response rating, Corn” value [9, 25] was 50, the “Plant response rating, Corn” value [9, 18] was 100 and the “Plant response rating, Foxtail, Giant” value [10, 25] was 90. For the same molecule, the “Plant response rating, Foxtail, Giant” value [10, 26] was 100, the “Plant response rating, Foxtail, Giant” value [10, 18] was 100 and the “Plant response rating, Foxtail, Giant” value [10, 27] was 100. The “Plant response rating, Wheat” value [11, 25] was 20, the “Plant response rating, Wheat” value [11, 18] was 60 and the “Plant response rating, Ragweed” value [12, 25] was 30. For the same molecule, the “Plant response rating, Ragweed” value [12, 26] was 20, the “Plant response rating, Ragweed” value [12, 18] was 50 and the “Kochia plant response rating” value ([13]; 16 g ai/ha) was 95. For the same molecule, the “Kochia plant response rating” value ([13]; 31 g ai/ha) was 95, the “Plant response rating, Kochia” value ([13]; 62 g ai/ha) was 95 and the “Plant response rating, Kochia” value ([13]; 125 g ai/ha) was 100. For the same molecule, the “Oat, Wild plant response rating” value [14, 28] was 5, the “Oat, Wild plant response rating” value [14, 22] was 10 and the “Plant response rating, Oat, Wild” value [14, 23] was 15. The “Plant response rating, Oat, Wild” value [14, 24] was 50, the “Chickweed plant response rating” value ([15]; 16 g ai/ha) was 75 and the “Chickweed plant response rating” value ([15]; 31 g ai/ha) was 70. For the same molecule, the “Plant response rating, Chickweed” value ([15]; 62 g ai/ha) was 90, the “Plant response rating, Chickweed” value ([15]; 125 g ai/ha) was 98 and the “Plant response rating, Blackgrass” value [16, 25] was 60. For the same molecule, the “Plant response rating, Blackgrass” value [16, 18] was 100, the “Plant response rating, Galium” value [17, 25] was 100 and the “Plant response rating, Galium” value [17, 18] was 100.
